Measurements reported in patent publication US10221182B2, “3,3-difluoro-piperidine derivatives as NR2B NMDA receptor antagonists” (Rugen Holdings (Cayman) Limited, priority 2015, dated 2019).
pIC50: −log10 of the molar value.

Assays:
human NR1/NR2B = human NR1/NR2B (Homo sapiens (Human), UniProt Q05586+Q13224); assay: NR2B antagonist activity, Fluo-4 calcium influx assay in HEK293 cells; assay type: cell-based; settings: hNR2B IC50, HEK293 cells expressing NR1/NR2B; glutamate 100 μM, glycine 50 μM
Sequence of human NR1/NR2B (Q13224 27-1484, other chains not shown): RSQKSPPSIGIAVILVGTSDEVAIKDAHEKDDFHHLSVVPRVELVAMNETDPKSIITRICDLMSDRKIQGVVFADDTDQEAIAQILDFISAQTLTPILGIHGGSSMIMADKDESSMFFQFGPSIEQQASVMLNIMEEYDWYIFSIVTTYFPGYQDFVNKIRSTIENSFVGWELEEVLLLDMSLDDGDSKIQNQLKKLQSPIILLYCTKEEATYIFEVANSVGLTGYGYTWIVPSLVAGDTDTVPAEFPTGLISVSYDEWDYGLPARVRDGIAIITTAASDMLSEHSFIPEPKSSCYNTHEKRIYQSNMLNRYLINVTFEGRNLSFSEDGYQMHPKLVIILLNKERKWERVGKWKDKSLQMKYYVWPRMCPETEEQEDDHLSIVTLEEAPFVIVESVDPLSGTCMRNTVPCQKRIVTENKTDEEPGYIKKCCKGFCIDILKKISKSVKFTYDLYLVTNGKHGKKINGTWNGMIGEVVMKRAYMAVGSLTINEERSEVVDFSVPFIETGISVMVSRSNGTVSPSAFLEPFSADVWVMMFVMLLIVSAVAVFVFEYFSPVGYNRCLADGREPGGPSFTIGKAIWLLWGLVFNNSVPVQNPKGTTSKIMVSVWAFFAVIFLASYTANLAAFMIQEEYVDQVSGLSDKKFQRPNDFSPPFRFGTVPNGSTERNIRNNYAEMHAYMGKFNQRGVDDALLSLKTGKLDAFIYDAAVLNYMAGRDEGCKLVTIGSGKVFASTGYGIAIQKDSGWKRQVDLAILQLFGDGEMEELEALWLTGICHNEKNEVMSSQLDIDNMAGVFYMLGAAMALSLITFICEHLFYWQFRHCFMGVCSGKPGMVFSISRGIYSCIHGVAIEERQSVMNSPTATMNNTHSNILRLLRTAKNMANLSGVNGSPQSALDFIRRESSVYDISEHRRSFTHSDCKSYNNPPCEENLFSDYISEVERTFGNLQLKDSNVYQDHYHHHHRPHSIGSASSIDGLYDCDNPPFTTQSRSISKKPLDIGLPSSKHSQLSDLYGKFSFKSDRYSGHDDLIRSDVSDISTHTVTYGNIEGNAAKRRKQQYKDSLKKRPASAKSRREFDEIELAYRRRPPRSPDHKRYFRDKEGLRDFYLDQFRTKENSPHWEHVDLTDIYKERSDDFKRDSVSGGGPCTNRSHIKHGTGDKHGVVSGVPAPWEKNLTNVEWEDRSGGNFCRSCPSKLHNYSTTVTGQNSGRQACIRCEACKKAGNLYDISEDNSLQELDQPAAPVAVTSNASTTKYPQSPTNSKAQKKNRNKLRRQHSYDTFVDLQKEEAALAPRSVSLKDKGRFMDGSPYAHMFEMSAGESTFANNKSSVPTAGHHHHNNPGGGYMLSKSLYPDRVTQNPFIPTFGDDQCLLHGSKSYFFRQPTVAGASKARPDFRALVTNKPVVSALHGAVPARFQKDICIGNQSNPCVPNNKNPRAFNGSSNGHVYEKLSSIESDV
Protocol: (§1) Activation of the NR2A or NR2B subtype of NMDA receptor with glutamate as an agonist and glycine co-agonist on these cells results in calcium influx, which can be monitored with fluorescent indicator Fluo-4.
(§2) For experiments, the cells were seeded onto poly-D-lysine-coated 96-well black plates with clear bottom (Corning) at a density of ˜50,000 cells/well. After overnight culture, the growth medium was removed from the wells and the cells were incubated at 37° C. for 60 min in Hanks buffer containing 4 μM fluo-4-AM (Invitrogen) and 0.1% bovine serum albumin (BSA). After dye-loading, the cells were washed three times with Hanks buffer and incubated for 10 min at room temperature with various concentrations of test compounds prepared in Hanks buffer with 0.1% BSA. The cell plates were placed onto FDSS μCell fluorescence reader (Hamamatsu). After 20 sec reading of background fluorescence, agonist glutamate at final 100 μM and co-agonist glycine at final 50 μM were added to the cells to activate the receptor, and the resulting fluorescence changes were recorded and quantified. Based on the changes in fluorescence intensity, the pharmacological effect of test compounds were analyzed and the IC50 values derived from a non-linear least squares fitting of the concentration-dependent response to a standard logistic equation using Prism (Graphpad, Inc): Amplitude=Max Amplitude/(1+([…])^n).

human NR1/NR2A = human NR1/NR2A (Homo sapiens (Human), UniProt Q05586+Q12879); assay: NR2A antagonist activity, Fluo-4 calcium influx assay in HEK293 cells; assay type: cell-based
Sequence of human NR1/NR2A (Q12879 23-1464, other chains not shown): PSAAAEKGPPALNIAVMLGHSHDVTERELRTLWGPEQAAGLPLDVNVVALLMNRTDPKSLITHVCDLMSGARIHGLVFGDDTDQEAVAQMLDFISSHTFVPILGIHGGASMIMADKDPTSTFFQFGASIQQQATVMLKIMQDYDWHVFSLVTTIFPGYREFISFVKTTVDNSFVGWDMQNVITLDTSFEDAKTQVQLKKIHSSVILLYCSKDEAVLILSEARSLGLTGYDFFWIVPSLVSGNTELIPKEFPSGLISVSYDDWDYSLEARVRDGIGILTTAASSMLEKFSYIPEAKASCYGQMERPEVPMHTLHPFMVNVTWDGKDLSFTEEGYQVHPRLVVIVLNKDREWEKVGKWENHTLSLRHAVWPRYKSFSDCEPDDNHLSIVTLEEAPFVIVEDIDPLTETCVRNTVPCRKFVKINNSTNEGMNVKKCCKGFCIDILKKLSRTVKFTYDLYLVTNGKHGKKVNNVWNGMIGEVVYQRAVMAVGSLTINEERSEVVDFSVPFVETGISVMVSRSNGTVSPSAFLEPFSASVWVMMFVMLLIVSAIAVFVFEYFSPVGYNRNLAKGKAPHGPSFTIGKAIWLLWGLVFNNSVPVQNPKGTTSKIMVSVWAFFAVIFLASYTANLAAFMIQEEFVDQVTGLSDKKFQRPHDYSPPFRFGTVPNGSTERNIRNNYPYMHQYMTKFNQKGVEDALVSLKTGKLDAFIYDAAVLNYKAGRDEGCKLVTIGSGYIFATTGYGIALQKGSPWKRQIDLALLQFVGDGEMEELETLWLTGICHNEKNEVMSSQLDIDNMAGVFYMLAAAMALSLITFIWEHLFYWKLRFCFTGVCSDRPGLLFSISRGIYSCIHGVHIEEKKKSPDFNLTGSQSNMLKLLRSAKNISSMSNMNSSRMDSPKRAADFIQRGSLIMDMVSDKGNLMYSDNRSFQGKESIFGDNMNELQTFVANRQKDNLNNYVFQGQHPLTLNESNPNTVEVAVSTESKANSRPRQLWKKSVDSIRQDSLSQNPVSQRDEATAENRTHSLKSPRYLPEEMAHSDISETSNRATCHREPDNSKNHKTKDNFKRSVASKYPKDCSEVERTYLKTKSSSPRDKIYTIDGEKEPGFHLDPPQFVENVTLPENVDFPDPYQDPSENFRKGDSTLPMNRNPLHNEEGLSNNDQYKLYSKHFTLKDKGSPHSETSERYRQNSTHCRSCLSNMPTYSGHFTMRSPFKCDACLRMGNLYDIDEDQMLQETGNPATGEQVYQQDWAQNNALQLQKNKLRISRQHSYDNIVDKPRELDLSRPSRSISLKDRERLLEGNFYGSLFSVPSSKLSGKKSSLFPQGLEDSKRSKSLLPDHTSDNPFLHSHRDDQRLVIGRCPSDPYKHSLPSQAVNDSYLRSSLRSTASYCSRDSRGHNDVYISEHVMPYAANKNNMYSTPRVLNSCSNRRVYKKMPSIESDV
Protocol: as §1, §2

hERG channel = hERG channel (Homo sapiens (Human), UniProt Q12809)
Sequence of hERG channel (Q12809 whole entry): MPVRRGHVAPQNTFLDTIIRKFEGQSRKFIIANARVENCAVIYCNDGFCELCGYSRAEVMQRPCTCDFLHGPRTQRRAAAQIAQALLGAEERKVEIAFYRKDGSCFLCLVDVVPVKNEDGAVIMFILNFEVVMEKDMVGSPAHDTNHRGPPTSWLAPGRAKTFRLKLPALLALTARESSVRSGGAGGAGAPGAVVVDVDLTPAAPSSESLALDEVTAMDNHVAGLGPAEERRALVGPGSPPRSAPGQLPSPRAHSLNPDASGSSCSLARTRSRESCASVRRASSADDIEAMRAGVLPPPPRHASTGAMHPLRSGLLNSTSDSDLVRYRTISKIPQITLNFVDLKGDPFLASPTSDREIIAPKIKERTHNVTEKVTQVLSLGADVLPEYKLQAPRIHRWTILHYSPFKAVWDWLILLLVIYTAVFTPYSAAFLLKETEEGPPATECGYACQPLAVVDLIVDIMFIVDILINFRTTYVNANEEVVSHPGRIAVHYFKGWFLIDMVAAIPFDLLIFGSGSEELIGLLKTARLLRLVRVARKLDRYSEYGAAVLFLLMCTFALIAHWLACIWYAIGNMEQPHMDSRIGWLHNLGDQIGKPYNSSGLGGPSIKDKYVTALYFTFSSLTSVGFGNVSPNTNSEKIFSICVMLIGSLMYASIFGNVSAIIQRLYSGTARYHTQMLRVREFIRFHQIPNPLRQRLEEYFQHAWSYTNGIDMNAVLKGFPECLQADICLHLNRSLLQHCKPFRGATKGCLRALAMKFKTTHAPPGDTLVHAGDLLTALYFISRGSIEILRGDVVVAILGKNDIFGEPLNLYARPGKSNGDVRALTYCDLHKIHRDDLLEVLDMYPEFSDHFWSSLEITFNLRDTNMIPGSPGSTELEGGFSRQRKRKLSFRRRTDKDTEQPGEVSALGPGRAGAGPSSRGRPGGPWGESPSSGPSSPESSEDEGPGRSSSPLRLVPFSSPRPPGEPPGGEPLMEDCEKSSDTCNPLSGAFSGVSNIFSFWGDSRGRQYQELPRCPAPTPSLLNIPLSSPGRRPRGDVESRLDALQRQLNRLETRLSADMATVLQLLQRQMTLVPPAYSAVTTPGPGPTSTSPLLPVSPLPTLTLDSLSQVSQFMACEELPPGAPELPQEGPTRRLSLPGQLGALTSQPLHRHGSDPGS

mice = assay: Forced swim test (FST); assay type: in vivo; settings: male mice, intraperitoneal; imipramine 32 mg/kg IP
Protocol: Procedure. Male mice (strain NLMN) weighing 25-35 g were used for testing. All animals were housed in a temperature (22-24° C.) and humidity (50-60%) controlled environment with free access to food and water on a 12-hour light-dark cycle. Test compounds were dissolved in 0.5% dimethylsulfoxide, 4% hydroxypropyl-β-cyclodextrin water to generate the appropriate dosing solution. Drugs were administered by intraperitoneal injection at a dose volume of 10 mL/kg. Testing was initiated 20-60 minutes after dosing. […] Mice were placed in a white plastic cylinder 20 cm high with a diameter of 21 cm containing 10 cm of water at 25±2° C. The mice were videotaped for 6 minutes, and the last 4 minutes of video were analyzed by a blinded observer off-line. The observer judged the animal to be immobile when it ceased all activity (struggling, swimming, jumping etc.) and floated passively atop the water. The amount of time each animal spent in the immobile state was recorded and used for statistical analysis of compound effect. Group differences were evaluated by student's t-test or one-way ANOVA followed by post-hoc Dunnett's test.

Compound	pIC50 (human NR1/NR2B)	pIC50 (human NR1/NR2A)	hERG @ 10 μM (hERG channel)	antidepressant activity (immobility time) (mice)
CN(c1ncnc2[nH]ncc12)C1CCN(CCc2ccc(C(F)(F)F)cc2)CC1(F)F (racemic) [C-1.33]	6.99	< 5.00	59%	
CN(C)CCCN1c2ccccc2CCc2ccccc21 [imipramine]				showed the expected antidepressant activity
